Source: ChEMBL document CHEMBL1158846, “Three new bistetrahydrofuran acetogenins from the seeds of Annona spinescens” (J Nat Prod, 1998)
≈ marks a conversion by molar mass, not a printed value.

Key:
KB = assay: Cytotoxicity against human KB cells; format: functional
[1] = Cytotoxicity against african green monkey Vero cells; format: cell-based; details: chlorocebus sabaeus, read-out: ED50 (the source's name)

Row | Compound | ED50 (KB) | CC50 [1]
1 | CCCCCCC(O)CCC[C@H](O)[C@@H]1CC[C@@H]([C@@H]2CC[C@H]([C@H](O)CCCCCCCCCCCCC3=C[C@H](C)OC3=O)O2)O1 (stereo not given in full) [CAROLIN A] | 1 ×10⁻⁷ ug/ml | 2 ng/mL (≈ 3.21 nM)
2 | CCCCCC(O)CCCC[C@H](O)[C@@H]1CC[C@@H]([C@@H]2CC[C@H]([C@H](O)CCCCCCCCCCCCC3=C[C@H](C)OC3=O)O2)O1 (stereo not given in full) [CAROLIN B] | 5 ×10⁻⁶ ug/ml | 3.7 ng/mL (≈ 5.94 nM)
3 | CCCCCCC(O)CCC[C@H](O)[C@@H]1CC[C@@H]([C@@H]2CC[C@H]([C@H](O)CCCCCCCCCCC3=C[C@H](C)OC3=O)O2)O1 (stereo not given in full) [CAROLIN C] | 2 ×10⁻⁴ ug/ml | 50 ng/mL (≈ 84.1 nM)
4 | CCCCCC(O)C(O)CCC[C@H](O)[C@H]1CC[C@@H]([C@@H]2CC[C@@H]([C@@H](O)CCCCCCCCCCCCC3=C[C@H](C)OC3=O)O2)O1 (stereo not given in full) [SPINENCIN] | 1 ×10⁻⁵ ug/ml | 6 ng/mL (≈ 9.39 nM)
5 | CCCCCC[C@H](O)CCC[C@H](O)[C@H]1CC[C@H]([C@H]2CC[C@H]([C@H](O)CCCCCCCCCCCCC3=C[C@H](C)OC3=O)O2)O1 [SQUAMOCIN] | 4 ×10⁻⁴ ug/ml | 10 ng/mL (≈ 16.1 nM)
